Reference: publication PMC10895678 (Journal of Medicinal Chemistry, 2024)
Values after ≈ are worked out from the molar mass of the structure shown. Read-outs that look alike come from different tables or passages of the source.

Columns and labels:
M. tuberculosis 1192/015 = assay: microbe, parasite or virus in culture; format: cell-based; conditions: Mycobacterium tuberculosis, 1192/015, read-out: M. tb 1192/015 MIC99
[1] = Mouse PPB, rapid equilibrium dialysis; format: in vitro ADME; conditions: mouse plasma (100%), RED, 37 °C
Protocol: Compounds were solubilized (10 mM in DMSO), and rapid equilibrium dialysis (RED) was used to measure the percentage binding to mouse plasma protein of the BGAz compounds at a final concentration of 5 μM. The BGAz compound was incubated in 100% mouse plasma and dialyzed against buffer in a RED device for 4 h at 37 °C in a 5% CO2 incubator, with continuous shaking at 200 rpm. Samples were matrix-matched and analyzed by LC-MS/MS against a six-point standard curve prepared with 100% plasma. All experiments were performed in triplicate.

CYP1A2 = target: T1, CYP1A2 (Homo sapiens, UniProt P05177); assay: Cytochrome P450 inhibition, CYP1A2; format: in vitro ADME; conditions: human liver microsomes
T1 construct: from tissue; host or cells: human liver microsomes
T1 sequence (P05177 1-516): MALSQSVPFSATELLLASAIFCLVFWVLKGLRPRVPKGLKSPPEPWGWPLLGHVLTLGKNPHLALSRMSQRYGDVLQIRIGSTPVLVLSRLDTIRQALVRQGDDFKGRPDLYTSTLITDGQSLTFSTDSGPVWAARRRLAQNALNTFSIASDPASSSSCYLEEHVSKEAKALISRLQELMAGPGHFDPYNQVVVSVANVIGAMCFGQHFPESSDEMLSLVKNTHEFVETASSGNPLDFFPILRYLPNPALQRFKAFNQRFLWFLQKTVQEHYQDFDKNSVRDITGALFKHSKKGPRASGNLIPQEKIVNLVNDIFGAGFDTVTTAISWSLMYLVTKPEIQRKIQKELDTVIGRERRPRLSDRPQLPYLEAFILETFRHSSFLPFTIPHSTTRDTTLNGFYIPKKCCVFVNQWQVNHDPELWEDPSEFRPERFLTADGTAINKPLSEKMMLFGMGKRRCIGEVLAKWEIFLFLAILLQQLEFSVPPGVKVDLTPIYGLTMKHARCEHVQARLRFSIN
Protocol: Compounds were solubilized to 10 mM in DMSO. The BGAz compounds were incubated at concentrations of 0.003, 0.009, 0.03, 0.08, 0.25, 0.74, 2.2, 6.7, and 20 μM with CYP1A2, CYP2C9, CYP2C19, and CYP2D6 at 37 °C in the presence of the drug-like probe substrate […] the Phase 1 cofactor NADPH (1 mM). The formation of metabolites of the drug-like probe substrates in the absence and presence of the BGAz compound was monitored by LC-MS/MS, and the IC50 value was determined. All assays had two replicates per compound and included a positive control inhibitor.

M. tb H37Ra::pTYOK = format: cell-based, Mycobacterium tuberculosis; conditions: autoluminescent strain, >50% RLU inhibition on day 3
C. glutamicum pks13 = assay: MIC, resazurin assay, C. glutamicum pks13 deletion mutant; format: cell-based, Corynebacterium glutamicum; conditions: modified Gompertz function
M. bovis BCG = assay: microbe, parasite or virus in culture; format: cell-based, Mycobacterium bovis BCG; conditions: for MIC99 / MIC50: Mycobacterium tuberculosis variant bovis BCG, BCG; for MIC50: read-out: MIC50 BCG; for increase in activity against M. bovis BCG compared to BGAz-001: fold, from MIC99
[2] = Caco-2 permeability and efflux; format: in vitro ADME; conditions: human, pH 7.4, 2 h; for efflux ratio at 2 h, 10 μM: Caco-2, pH 7.4, 10 μM; for Papp B→A at 2 h, 10 μM: Caco-2, read-out: Caco-2 B-A Paap
Protocol: Compounds were solubilized (10 mM in DMSO), and the CacoReady Kit from ReadyCell S.L. (Barcelona, Spain) was used to determine compound permeability. Differentiated and polarized Caco-2 cells (21-day system) were plated on a 96-transwell permeable system as a single monolayer to allow for automated high throughput screening of compounds, and 10 μM BGAz compound was added to the system in HBSS buffer (pH 7.4) and incubated for 2 h at 37 °C in a CO2 incubator. Lucifer yellow was used as a cell monolayer integrity marker. Drug transport was assessed in both directions [apical to basolateral (A-B) and basolateral to apical (B-A)] across the cell monolayer. […] The BGAz compound concentrations were quantified using a calibration curve following analysis by LC-MS/MS, and the apparent permeability coefficient (Papp) and efflux ratio of the compound across the monolayer were calculated. The efflux ratio is used as an indicator of active efflux. The permeability coefficient (Papp) was calculated from the following equation: [drawing 2] 2 where dQ/dt is the amount of compound in the basal (A-B) or apical (B-A) compartment as a function of time (nmol/s). C0 is the initial concentration in the donor (apical or basal) compartment (Mean of T = 0) (nmol/mL) and A is the area of the transwell (cm^2).
The efflux ratio was then calculated as [drawing 3] 3
All experiments were performed in triplicate, and the MDR1 efflux markers Digoxin, quinidine, and […] were used as positive controls.

[3] = preincubated 30 min prior to NADPH, read-out: CYP1A2 [pre-inc] IC50
[4] = without pre-incubation, read-out: CYP1A2 IC50

| SMILES | MIC99 (M. tuberculosis 1192/015) | fraction unbound at 4 h, 5 μM [1] | IC50 (CYP1A2; [3]) | IC50 (CYP1A2; [4]) | M. tb H37Ra::pTY OK MIClux50 (M. tb H37Ra::pTYOK) | C. glutamicum pks13 MIC (C. glutamicum pks13) | MIC99 (M. bovis BCG; read-out: BCG MIC99) | MIC50 (M. bovis BCG) | MIC99 (M. bovis BCG; read-out: MIC99 BCG) | increase in activity against M. bovis BCG compared to BGAz-001 (M. bovis BCG) | efflux ratio at 2 h, 10 μM [2] | Papp B→A at 2 h, 10 μM [2] |
| --- | --- | --- | --- | --- | --- | --- | --- | --- | --- | --- | --- | --- |
| Brc1cc(Br)cc(C2CC(CN3CCCC3)N2Cc2ccccc2Br)c1 (stereo not drawn) [BGAz-004] | 15.4 µM (≈ 8.36 µg/mL) | < 0.01 | > 20 µM | > 20 µM | 7.03 μM | 10 | 14 µM (≈ 7.6 µg/mL) | 15 µM (≈ 8.15 µg/mL) | 14 µM (≈ 7.6 µg/mL) | approximately three- to four-fold increase | 1.4 | 0.5 ×10⁻⁶ cm/s |
| FC(F)(F)Oc1ccc(C2CC(CN3CCCC3)N2Cc2ccccc2OC(F)(F)F)cc1 (stereo not drawn) [BGAz-002] | 37.8 µM (≈ 17.9 µg/mL) | < 0.01 | > 20 µM | > 20 µM | 9.2 μM | 50 | 15 µM (≈ 7.12 µg/mL) | 14 µM (≈ 6.64 µg/mL) | 15 µM (≈ 7.12 µg/mL) | approximately three- to four-fold increase | 1.2 | 2.8 ×10⁻⁶ cm/s |
| CNCC1CC(c2ccc(OC(F)(F)F)cc2)N1Cc1ccccc1OC(F)(F)F (stereo not drawn) [BGAz-005] | 23.2 µM (≈ 10.1 µg/mL) | < 0.01 | > 20 µM | > 20 µM | 4.5 μM | 10 | 21 µM (≈ 9.12 µg/mL) | 20 µM (≈ 8.69 µg/mL) | 21 µM (≈ 9.12 µg/mL) | approximately three-fold increase | < 1 | 1.4 ×10⁻⁶ cm/s |
